Data set [1] relates to mustard beetle larvae (Phaedon cochleariae). Put plainly: Phaedon Larvae Test. In kind it is in vivo. Particulars: active compound concentration of 0.1%; after 7 days; cabbage leaves dipped. Here is the method:
(§1) Solvent: 7 parts by weight of dimethylformamide
(§2) Emulsifier: 1 part by weight of alkylaryl polyglycol ether
To produce a suitable preparation of active compound, 1 part by weight of active compound is mixed with the stated amount of solvent and the stated amount of emulsifier, and the concentrate is diluted with water to the desired concentration.
Cabbage leaves (Brassica oleracea) are treated by being dipped into the preparation of active compound of the desired concentration and are populated with mustard beetle larvae (Phaedon cochleariae) while the leaves are still moist.
After the desired period of time, the kill in % is determined. 100% means that all beetle larvae have been killed; 0% means that none of the beetle larvae have been killed.

In data set [2] the test system is peach aphid (Myzus persicae). Briefly: Myzus Test. In kind it is in vivo. Particulars: active compound concentration of 0.1%; after 6 days; cabbage leaves dipped. Here is the method:
as §1, §2
To produce a suitable preparation of active compound, 1 part by weight of active ingredient is mixed with the stated amount of solvent and the stated amount of emulsifier, and the concentrate is diluted with water to the desired concentration.
Cabbage leaves (Brassica oleracea) which are heavily infested by the peach aphid (Myzus persicae) are treated by being dipped into the preparation of active compound of the desired concentration.
After the desired period of time, the kill in % is determined. 100% means that all aphids have been killed; 0% means that none of the aphids have been killed.

Data set [3] is described as follows: logP determination by HPLC (EEC directive 79/831 Annex V. A8). In kind it is physicochemical. The note with it: pH = 2; HPLC gradient method, acetonitrile/0.1% aqueous phosphoric acid. Here is the method:
[logP=the logP values were determined in accordance with EEC directive 79/831 Annex V. A8 by HPLC (gradient method, acetonitrile/0.1% aqueous phosphoric acid)]

This passage reports kill and chromatographic logP results from patent publication US6683028B1, “Cyclic guanidine derivatives and their use as pesticides” (Bayer Aktiengesellschaft, priority 1999, dated 2004).

One may read the chromatographic logP as a lipophilicity value derived from retention on a column. Higher therefore signals higher lipophilicity. Regarding `CCCOCN1COCN(Cc2cnc(Cl)s2)C1=N[N+](=O)[O-]` [Example 1, 3-(2-chloro-thiazol-5-yl-methyl)-4-nitroimino-5-n-propoxymethyl-perhydro-1,3,5-oxadiazine], the kill in data set [1] and in data set [2] was 100% throughout. Further, the chromatographic logP in data set [3] amounted to 1.7.
